In patent US11666551B2, “Agent for reducing amount of amyloid β protein” (FUJIFILM Toyama Chemical Co., Ltd., priority 2017, dated 2023):

Key:
Type in all cases: in vivo, mild to moderate AD patients
Aβ = assay: Phase II placebo-controlled trial, concentration of Aβ in the cerebrospinal fluid (overall statement); details: Compound A groups (high and low dose) vs placebo group
Method: […]
Cerebrospinal fluid was collected by lumber puncture from subjects at baseline (within 2 weeks before the first day of administration of investigational drug) and after 52 weeks (within 2 weeks before week 52), and divided into 9-ml aliquots in polyethylene tubes and stored at −80° C. The AP-42 value in the cerebrospinal fluid was measured by sandwich ELIZA which has been designed for measurement of Aβ including 1 amino acid and 42 amino acids. […]

Aβ-40 = assay: Phase II placebo-controlled trial, cerebrospinal fluid biomarker Aβ-40; details: for Change in Aβ-40 in CSF at week 52, difference from placebo group: analysis of covariance
Description: [The procedure below names another target; the source lists this target under the same test.] (§1) Maleate of Compound A was used as the test compound. • Test Example 1 Multicenter randomized double-blind phase II placebo-controlled trial for assessing effectiveness and safety of Compound A in mild to moderate AD patients Subject (selection criteria): Patients were screened in a period from 42 days before treatment assignment to the assignment based on the following selection criteria. • Patients who were probable AD and are 55 years old or older and 85 years old or younger at the time of obtaining consent of screening. • Patients with an MMSE score of 12 to 22 at the time of screening • Patients with a Modified Hachinski Ischemia Scale score of 4 or less • Patients who have been treated with a donepezil hydrochloride or rivastigmine transdermal system for at least 4 months before the baseline and with a stable dose thereof for 3 months before the baseline. • In the case of patients who have received memantine in addition to being treated with a donepezil hydrochloride or rivastigmine transdermal system, patients who have been treated with memantine for at least 4 months before the baseline and with a stable dose thereof for 3 months before the baseline. • Patients whose brain MRI or CT results match AD at the time of screening • Organization of groups: Patients matched (484 patients) were randomly divided into the following 3 groups and the trial was started. • (1) High dose group: 224 mg of a test compound (160 mg in terms of Compound A) was orally administered once a day for 4 weeks and then 448 mg of a test compound (320 mg in terms of Compound A) was orally administered once a day for 48 weeks (158 patients) • (2) Low dose group: 224 mg of a test compound (160 mg in terms of Compound A) was orally administered once a day for 52 weeks (166 patients) • (3) Placebo group: placebo was orally administered once a day for 52 weeks (158 patients) Method of assessment: Cerebrospinal Fluid Biomarker
(§2) Cerebrospinal fluid was collected by lumber puncture from subjects at baseline (within 2 weeks before the first day of administration of investigational drug) and after 52 weeks (within 2 weeks before week 52), and divided into 9-ml aliquots in polyethylene tubes and stored at −80° C. The AP-42 value in the cerebrospinal fluid was measured by sandwich ELIZA which has been designed for measurement of Aβ including 1 amino acid and 42 amino acids.
(§3) Change in cerebrospinal fluid (CSF) biomarkers at week 52 from the baseline was compared by analysis of covariance between a high dose group and a placebo group, and between a low dose group and the placebo group. For models, the baseline of cerebrospinal fluid (CSF) biomarkers was included as a covariate and the significance level was 5%.

Aβ-42 = assay: Phase II placebo-controlled trial, cerebrospinal fluid biomarker Aβ-42; details: for Change in Aβ-42 in CSF at week 52, difference from placebo group: analysis of covariance
Description: as §1, §2, §3

Aβ-38 = assay: Phase II placebo-controlled trial, cerebrospinal fluid biomarker Aβ-38; details: for Change in Aβ-38 in CSF at week 52, difference from placebo group: analysis of covariance
Description: [The procedure below names another target; the source lists this target under the same test.] as §1, §2, §3

[1] = High dose group (160 mg then 320 mg in terms of Compound A, oral, once a day)
[2] = High dose group: 160 mg in terms of Compound A orally once a day for 4 weeks, then 320 mg for 48 weeks, 24 cases
[3] = Low dose group (160 mg in terms of Compound A, oral, once a day, 52 weeks)
[4] = Low dose group: 160 mg in terms of Compound A orally once a day for 52 weeks, 17 cases

OC1CN(CCCOCCc2ccc3sccc3c2)C1 [Compound A, 1-(3-(2-(1-benzothiophen-5-yl)ethoxy)propyl)azetidin-3-ol]
Change in the concentration of Aβ in the cerebrospinal fluid at week 52 from the baseline, compared to the placebo group (Aβ): tended to be increased in a dose dependent manner
Change in Aβ-40 in CSF at week 52, difference from placebo group (Aβ-40; [1]): 1206.87 pg/mL
Change in concentration of Aβ-40 in CSF at week 52 from the baseline, least square means (Aβ-40; [2]): 290.84 pg/mL
Change in Aβ-40 in CSF at week 52, difference from placebo group (Aβ-40; [3]): 75.71 pg/mL
Change in concentration of Aβ-40 in CSF at week 52 from the baseline, least square means (Aβ-40; [4]): -840.32 pg/mL
Change in Aβ-42 in CSF at week 52, difference from placebo group (Aβ-42; [1]): 32.90 pg/mL
Change in concentration of Aβ-42 in CSF at week 52 from the baseline, least square means (Aβ-42; [2]): 11.55 pg/mL
Change in Aβ-42 in CSF at week 52, difference from placebo group (Aβ-42; [3]): 11.65 pg/mL
Change in concentration of Aβ-42 in CSF at week 52 from the baseline, least square means (Aβ-42; [4]): -9.70 pg/mL
Change in Aβ-38 in CSF at week 52, difference from placebo group (Aβ-38; [1]): 525.66 pg/mL
Change in concentration of Aβ-38 in CSF at week 52 from the baseline, least square means (Aβ-38; [2]): 178.64 pg/mL
Change in Aβ-38 in CSF at week 52, difference from placebo group (Aβ-38; [3]): 127.43 pg/mL
Change in concentration of Aβ-38 in CSF at week 52 from the baseline, least square means (Aβ-38; [4]): -219.58 pg/mL
